{"source": "patent US8710058B2", "about": "“Polymorphic forms of 3-(1-{3-[5-(1-methyl-piperidin-4-ylmethoxy)-pyrimidin-2-yl]-benzyl}-6-oxo-1,6-dihydro-pyridazin-3-yl)-benzonitrile hydrochloride salt and processes of manufacturing thereof” (MERCK PATENT GmbH, priority 2009, dated 2014)", "key": {"[1]": {"assay": "Kinetic solubility (after 60 minutes) in 0.1 N HCl", "conditions": "0.1 N HCl (pH 1.0); for Kinetic Solubility (after 60 minutes): room temperature (approx. 20-25° C.)"}, "[2]": {"assay": "Water Vapor Sorption isotherm (25° C., SMS DVS)", "format": "physicochemical", "conditions": "for Hygroscopicity classification acc. to Ph. Eur. criteria: up to 98% RH", "from_the_text": "The crystalline modifications of the present invention can be characterized according to standard methods which can be found e.g. in Rolf Hilfiker, ‘Polymorphism in the Pharmaceutical Industry’, Wiley-VCH, Weinheim 2006, and references therein, e.g. X-Ray diffraction (XRD; chapter 6), IR and Raman spectroscopy (chapter 5), Differential Scanning calorimetry (DSC) and Thermogravimetric Analysis (TGA) (chapter 3), Water Vapour Sorption Studies (chapter 9), or which can be found e.g. in H. G. Brittain (editor), Polymorphism in Pharmaceutical Solids, Vol. 95, Marcel Dekker Inc., New York 1999 (chapter 6: all there mentioned techniques).\nFIG. 6 depicts the Water Vapour Sorption Isotherm (25° C.) (SMS DVS 1) of crystalline modification A1 of 3-(1-{3-[5-(1-methyl-piperidin-4-ylmethoxy)-pyrimidin-2-yl]-benzyl}-6-oxo-1,6-dihydro-pyridazin-3-yl)-benzonitrile hydrochloride anhydrate.\nFIG. 12 depicts the Water Vapour Sorption Isotherm (25° C.) (SMS DVS Intrinsic) of crystalline modification H1 of 3-(1-{3-[5-(1-methyl-piperidin-4-ylmethoxy)-pyrimidin-2-yl]-benzyl}-6-oxo-1,6-dihydro-pyridazin-3-yl)-benzonitrile hydrochloride hydrate.\nFIG. 18 depicts the Water Vapour Sorption Isotherm (25° C.) (SMS DVS Advantage) of crystalline modification NF3 of 3-(1-{3-[5-(1-methyl-piperidin-4-ylmethoxy)-pyrimidin-2-yl]-benzyl}-6-oxo-1,6-dihydro-pyridazin-3-yl)-benzonitrile hydrochloride hydrate.\nFIG. 25 depicts the Water Vapour Sorption Isotherm (25° C.) (SMS DVS Intrinsic) of crystalline modification H2 of 3-(1-{3-[5-(1-methyl-piperidin-4-ylmethoxy)-pyrimidin-2-yl]-benzyl}-6-oxo-1,6-dihydro-pyridazin-3-yl)-benzonitrile hydrochloride monohydrate.\nFIG. 33 depicts the Water Vapour Sorption Isotherm (25° C.) (SMS DVS Intrinsic) of crystalline modification NF6 of 3-(1-{3-[5-(1-methyl-piperidin-4-ylmethoxy)-pyrimidin-2-yl]-benzyl}-6-oxo-1,6-dihydro-pyridazin-3-yl)-benzonitrile hydrochloride anhydrate.\nFIG. 38 depicts the Water Vapour Sorption Isotherm (25° C.) (SMS DVS Intrinsic) of crystalline modification NF2 of 3-(1-{3-[5-(1-methyl-piperidin-4-ylmethoxy)-pyrimidin-2-yl]-benzyl}-6-oxo-1,6-dihydro-pyridazin-3-yl)-benzonitrile hydrochloride hydrate."}, "[3]": {"assay": "Thermodynamic solubility in 0.1 N HCl at 37° C.", "conditions": "0.1 N HCl (pH 1.0); for Thermodynamic Solubility: 37° C."}, "[4]": {"conditions": "pH 1"}, "[5]": {"assay": "Competitive binary slurry conversion experiments (thermodynamic stability of hydrate forms)", "conditions": "different solvents at 25° C. and 50° C."}, "[6]": {"assay": "Solubility in Simulated Gastric Fluid (acc. to USP)", "conditions": "20 °C, thermodynamic from solid"}}, "note": "“Also recorded” adds a separate entry of the source. Like-named read-outs stand apart in the source and are kept apart here.", "data": [{"smiles": "CN1CCC(COc2cnc(-c3cccc(Cn4nc(-c5cccc(C#N)c5)ccc4=O)c3)nc2)CC1.Cl.O", "note": "[crystalline modification H1, 3-(1-{3-[5-(1-methyl-piperidin-4-ylmethoxy)-pyrimidin-2-yl]-benzyl}-6-oxo-1,6-dihydro-pyridazin-3-yl)-benzonitrile hydrochloride hydrate]", "values": [{"measurement": "Kinetic Solubility (after 60 minutes)", "setting": "[1]; hydrochloride hydrate", "value": "approx. 3 μg/mL"}, {"measurement": "Solubility compared to crystalline modification H2", "setting": "[1]; kinetic solubility", "value": "significantly increased solubility"}, {"measurement": "Water uptake level", "setting": "[2]; at 80% RH", "value": "> 15", "unit": "wt %"}, {"measurement": "Hygroscopic behaviour", "setting": "[2]; relative humidity levels >70%", "value": "strongly hygroscopic"}]}, {"smiles": "CN1CCC(COc2cnc(-c3cccc(Cn4nc(-c5cccc(C#N)c5)ccc4=O)c3)nc2)CC1.Cl.O", "note": "[crystalline modification NF3, 3-(1-{3-[5-(1-methyl-piperidin-4-ylmethoxy)-pyrimidin-2-yl]-benzyl}-6-oxo-1,6-dihydro-pyridazin-3-yl)-benzonitrile hydrochloride hydrate]", "values": [{"measurement": "Water uptake level", "setting": "[2]; at 98% relative humidity", "value": "approx. 9 wt %"}, {"measurement": "Behaviour of hydrate water under dry RH conditions", "setting": "[2]; hydrochloride hydrate", "value": "dehydration of hydrate water occurs"}, {"measurement": "Hygroscopicity classification acc. to Ph. Eur. criteria", "setting": "[2]; hydrochloride hydrate", "value": "slightly-hygroscopic"}, {"measurement": "Thermodynamic Solubility", "setting": "[3]; hydrochloride hydrate", "value": "approx. 70 μg/mL"}, {"measurement": "Solubility compared to crystalline modification H2", "setting": "[3]; thermodynamic solubility", "value": "significantly increased solubility"}]}, {"smiles": "CN1CCC(COc2cnc(-c3cccc(Cn4nc(-c5cccc(C#N)c5)ccc4=O)c3)nc2)CC1.Cl", "note": "[crystalline modification A1, 3-(1-{3-[5-(1-methyl-piperidin-4-ylmethoxy)-pyrimidin-2-yl]-benzyl}-6-oxo-1,6-dihydro-pyridazin-3-yl)-benzonitrile hydrochloride anhydrate]", "values": [{"measurement": "Hygroscopic behavior", "setting": "[2]; at 98% RH", "value": "strongly hygroscopic"}, {"measurement": "Water uptake level", "setting": "[2]; at 98% relative humidity", "value": "> 15", "unit": "wt %"}, {"measurement": "Water uptake upon adsorption", "setting": "[2]; range 0-90% relative humidity", "value": "very small water uptake levels"}]}, {"smiles": "CN1CCC(COc2cnc(-c3cccc(Cn4nc(-c5cccc(C#N)c5)ccc4=O)c3)nc2)CC1.Cl", "note": "[crystalline modification NF6, 3-(1-{3-[5-(1-methyl-piperidin-4-ylmethoxy)-pyrimidin-2-yl]-benzyl}-6-oxo-1,6-dihydro-pyridazin-3-yl)-benzonitrile hydrochloride anhydrate]", "values": [{"measurement": "Water uptake", "setting": "[2]; 2nd adsorption cycle, up to 70% RH", "value": "approx. 8 wt %"}, {"measurement": "Water uptake in initial sorption stage", "setting": "[2]; initial sorption stage at 40% relative humidity", "value": "pronounced water uptake"}, {"measurement": "Thermodynamic Solubility", "setting": "[4]", "value": "> 200", "unit": "µg/mL"}]}, {"smiles": "CN1CCC(COc2cnc(-c3cccc(Cn4nc(-c5cccc(C#N)c5)ccc4=O)c3)nc2)CC1.Cl.O", "note": "[crystalline modification NF2, 3-(1-{3-[5-(1-methyl-piperidin-4-ylmethoxy)-pyrimidin-2-yl]-benzyl}-6-oxo-1,6-dihydro-pyridazin-3-yl)-benzonitrile hydrochloride hydrate]", "values": [{"measurement": "Weight loss in water vapor sorption", "setting": "[2]; initial 40% RH sorption stage", "value": "~10", "unit": "wt %"}]}, {"smiles": "CN1CCC(COc2cnc(-c3cccc(Cn4nc(-c5cccc(C#N)c5)ccc4=O)c3)nc2)CC1.Cl.O", "note": "[crystalline modification H2, 3-(1-{3-[5-(1-methyl-piperidin-4-ylmethoxy)-pyrimidin-2-yl]-benzyl}-6-oxo-1,6-dihydro-pyridazin-3-yl)-benzonitrile hydrochloride monohydrate]", "values": [{"measurement": "Kinetic Solubility (after 60 minutes)", "setting": "[1]; hydrochloride monohydrate", "value": "approx. 0.3 μg/mL"}, {"measurement": "Thermodynamic stability compared to other hydrate forms H1 and NF3", "setting": "[5]", "value": "thermodynamically stable hydrate form"}, {"measurement": "solubility", "setting": "[6]", "value": "~20", "unit": "µg/mL"}, {"measurement": "Behaviour of hydrate water under dry RH conditions", "setting": "[2]; hydrochloride monohydrate", "value": "no loss of hydrate water"}, {"measurement": "Hygroscopicity classification acc. to Ph. Eur. criteria", "setting": "[2]; hydrochloride monohydrate", "value": "non-hygroscopic"}, {"measurement": "Water uptake", "setting": "[2]; up to 98% relative humidity (RH range 0-98%), hydrochloride monohydrate", "value": "small water uptake levels; also recorded: very small water uptake levels"}, {"measurement": "Thermodynamic Solubility", "setting": "[3]; hydrochloride monohydrate", "value": "approx. 28 μg/mL"}]}]}
